≈ marks a conversion by molar mass, not a printed value.

This passage reports IC50 results from ChEMBL document CHEMBL1126567, “CC-1065 functional analogues possessing different electron-withdrawing substituents and leaving groups: synthesis, kinetics, and sequence specificity of reaction with DNA and biological evaluation” (J Med Chem, 1993).

The assay in a line: In vitro reduction in viability of KB cells by modified crystal violet assay. Type of assay: functional, cell-based. As to conditions: Homo sapiens.
Take `CS(=O)(=O)OCC1CN(S(C)(=O)=O)c2cc(OCc3ccccc3)ccc21` (configuration not stated): the half-maximal inhibitory concentration (IC50) was 4.39 µg/mL (≈ 10.7 µM).
`CS(=O)(=O)N1CC2CC23C=CC(=O)C=C13` (configuration not stated) returned a 50% inhibitory concentration (IC50) of 8.64 µg/mL (≈ 38.4 µM).
As for `COC(=O)c1cc2c(cc1O)N(S(C)(=O)=O)CC2CCl` (configuration not stated), the 50% inhibitory concentration (IC50) was 8.38 µg/mL (≈ 26.2 µM).
Regarding `CS(=O)(=O)OCC1CN(S(C)(=O)=O)c2cc(O)c([N+](=O)[O-])cc21` (configuration not stated), the IC50 was determined as 0.764 µg/mL (≈ 2.09 µM).
For `CS(=O)(=O)OCC1CN(S(C)(=O)=O)c2cc(O)ccc21` (configuration not stated), half-maximal inhibition (IC50) required 3.69 µg/mL (≈ 11.5 µM).
With `CS(=O)(=O)OCC1CN(S(C)(=O)=O)c2cc(O)c(Br)cc21` (configuration not stated) the figure was 0.308 µg/mL (≈ 0.769 µM).
Turning to `CS(=O)(=O)N1CC(CCl)c2ccc(OCc3ccccc3)cc21` (configuration not stated), the IC50 was 6.32 µg/mL (≈ 18 µM).
`CS(=O)(=O)OCC1CN(S(C)(=O)=O)c2cc(OCc3ccccc3)c(Br)cc21` (configuration not stated) had an IC50 of 5.21 µg/mL (≈ 10.6 µM).
For `COC(=O)c1cc2c(cc1OCc1ccccc1)N(S(C)(=O)=O)CC2CCl` (configuration not stated), the IC50 came to 7.14 µg/mL (≈ 17.4 µM).
`CS(=O)(=O)N1CC(CCl)c2cc(C=O)c(O)cc21` (configuration not stated) showed a 50% inhibitory concentration (IC50) of 4.83 µg/mL (≈ 16.7 µM).
Regarding `CS(=O)(=O)N1CC(CCl)c2cc(Br)c(O)cc21` (configuration not stated), half-maximal inhibition (IC50) was put at 3.8 µg/mL (≈ 11.2 µM).
As for `CS(=O)(=O)OCC1CN(S(C)(=O)=O)c2cc(OCc3ccccc3)c([N+](=O)[O-])cc21` (configuration not stated), the IC50 is 7.91 µg/mL (≈ 17.3 µM).
As for `CS(=O)(=O)N1CC(CCl)c2cc(C=O)c(OCc3ccccc3)cc21` (configuration not stated), the IC50 was 3.24 µg/mL (≈ 8.53 µM).
Take `CS(=O)(=O)N1CC(CCl)c2cc(Br)c(OCc3ccccc3)cc21` (configuration not stated): half-maximal inhibition (IC50) required 6.18 µg/mL (≈ 14.3 µM).
As for `CS(=O)(=O)N1CC(CCl)c2cc([N+](=O)[O-])c(O)cc21` (configuration not stated), inhibition was half-maximal at 8.85 µg/mL (≈ 28.9 µM) (IC50).
For `CS(=O)(=O)N1CC(CCl)c2ccc(O)cc21` (configuration not stated), the IC50 is 4.24 µg/mL (≈ 16.2 µM).
Compound `COc1cccc2c1C(=O)c1c(O)c3c(c(O)c1C2=O)C[C@@](O)(C(=O)CO)C[C@@H]3O[C@H]1C[C@H](N)[C@H](O)[C@H](C)O1` [DOXORUBICIN] registered a half-inhibitory concentration (IC50) of 0.02 µg/mL (≈ 0.0368 µM).

A word on the IC50: it is the midpoint of a concentration-inhibition curve.
